Like-named read-outs stand apart in the source and are kept apart here. Values belong to the compound of their own block, whether it stands above or below them.
Assays:
[1] = system: HCT116 cells; test: Cell viability assay (CCK-8); type: cell-based; details: Homo sapiens, HCT-116
Protocol: (§1) KRAS-mutant and wild-type cells are listed in Supplementary Table S7.
(§2) For the adherent cell viability assay, cells in the logarithmic growth phase were seeded in 96-well culture plates at a density of 5×103 well-1 and incubated overnight. Diluted compounds or DMSO were added, or specific treatments were incubated at 37 °C and 5% CO2 for 24 h or 48 h. Cell viability was determined using CCK-8 or CellLightTM Cell Viability Assay Kit, according to the manufacturer's protocol. The luminescence signals of the treated samples were normalized to those of the DMSO group. […]

[2] = system: NCI-H1693 cells; test: Cell viability assay (CCK-8); type: cell-based; details: Homo sapiens
Protocol: as §1, §2

[3] = system: NCI-H1755 cells; test: Cell viability assay (CCK-8); type: cell-based; details: Homo sapiens
Protocol: as §1, §2

[4] = system: NCI-H1915 cells; test: Cell viability assay (CCK-8); type: cell-based
Protocol: as §1, §2

[5] = system: NCI-H1944 cells; test: Cell viability assay (CCK-8); type: cell-based; details: Homo sapiens
Protocol: as §1, §2

[6] = system: NCI-H358 cells; test: Cell viability assay (CCK-8); type: cell-based; details: Homo sapiens
Protocol: as §1, §2

[7] = system: NCI-H838 cells; test: Cell viability assay (CCK-8); type: cell-based; details: Homo sapiens
Protocol: as §1, §2

[8] = system: SNU-C2A cells; test: Cell viability assay (CCK-8); type: cell-based
Protocol: as §1, §2

[9] = system: SW1116 cells; test: Cell viability assay (CCK-8); type: cell-based; details: Homo sapiens, SW 1116
Protocol: as §1, §2

[10] = system: NCI-H2122, A549, and NCI-H1944 cells; test: Cell senescence β-galactosidase staining; type: cell-based, human; details: A549, NCI‐H2122, and NCI‐H1944 cells
Protocol: Cell senescence β-galactosidase staining
NCI-H2122, A549, and NCI-H1944 cells in the logarithmic growth phase were seeded into 48-well plates and cultured overnight. The supernatant was aspirated and fresh serum-free (0%), low-serum (3%), or regular serum (10%) medium with different drugs was added for 48 h. When the supernatant was discarded, β-galactosidase staining fixation fluid were added for 15 min and β-galactosidase staining solution were imported overnight at 37 ℃.
Finally, the staining results were recorded using an inverted microscope.

[11] = system: RAS wild‐type and mutant cells; test: Colony formation assay; type: cell-based
Protocol: supplies are listed in Supplementary Table S5. […]
Colony formation experiment
Cells in the logarithmic growth phase were digested thoroughly into a single dispersed state and inoculated into six-well plates at a density of 100 well-1. Subsequently, different concentrations of the drugs were added for 14 d, consecutively, and the solution was changed every 2 d. Next, the cells were fixed with 4% formaldehyde, stained with 0.1% crystal violet, and the number of clones was counted using an inverted microscope. […]

[12] = system: A549 and NCI‐H2122 cells; test: Cell proliferation in monolayer culture (CCK-8); type: cell-based, human
Protocol: as §2
Figure S7. Targeting SHP2 and XIAP produces a synthetic lethal effect. (A) Effects of NSC-87877 on cell viability of A549 and NCI-H2122 cells after 24 and 48 h were determined using the CCK-8. Bars, ± SEM. The curves were plotted using a variable slope (four-parameter) non-linear fit. (B, E, F, and I) Effects of Na3VO4 (B), birinapant (E), BV-6 (F), and LCL161 (I) on cell viability of human NCI-H2122 cells at 48 h were determined using the CCK-8. *p < 0.05, **p < 0.01 and ***p < 0.001 compared to control group (unpaired two-tailed Student’s t-test).(C, G) Effects of SHP099 (C) and GDC-0152 (G) on cell viability after 24 and 48 h were determined using the CCK-8. Bars, ± SEM. The curves were plotted using a variable slope (four-parameter) non-linear fit.(D, H) Effects of SHP099 (D) and GDC-0152 (H) on cell viability were determined after 48 h using intracellular ATP chemiluminescence. **p < 0.01 and ***p < 0.001 compared to control group (unpaired two-tailed Student’s t-test).(J) Effects of SHP099 and GDC-0152 separately and in combination, and the effect of embelin for 24 h on the cell viability were assessed using intracellular ATP […]
tailed Student’s t-test).(K) Effects of SHP099 and GDC-0152 separately and in combination with […] on the cell viability of human KRAS-WT and -mutant cells were assessed using a colony formation assay. (L, M) A549 and NCI-H2122 cells were instantaneously transfected with siPTPN11 and siXIAP separately and together for 24 h under

IC50 ([1]; HCT116, 48 h, read-out: IC50 at 48 h): 9.6 ± 0.4 µM | IC50 ([1]; HCT116, KRAS G13D, 24 h, read-out: IC50 at 24 h): 18.2 ± 0.9 µM | IC50 ([2]; NCI-H1693, 48 h, read-out: IC50 at 48 h): 16.2 ± 0.37 µM | IC50 ([2]; NCI-H1693, RAS-wild type, 24 h, read-out: IC50 at 24 h): 42.57 ± 0.34 µM | IC50 ([3]; NCI-H1755, 48 h, read-out: IC50 at 48 h): 14.2 ± 0.27 µM | IC50 ([3]; NCI-H1755, RAS-wild type, 24 h, read-out: IC50 at 24 h): 49.4 ± 0.32 µM | IC50 ([4]; NCI-H1915, 48 h, read-out: IC50 at 48 h): 11.4 ± 0.39 µM | IC50 ([4]; NCI-H1915, HRAS, 24 h, read-out: IC50 at 24 h): 60.6 ± 0.41 µM | IC50 ([5]; NCI-H1944, 48 h, read-out: IC50 at 48 h): 21.6 ± 0.9 µM | IC50 ([5]; NCI-H1944, KRAS G13D, 24 h, read-out: IC50 at 24 h): 31 ± 0.2 µM | IC50 ([6]; NCI-H358, 48 h, read-out: IC50 at 48 h): 9.2 ± 0.3 µM | IC50 ([6]; NCI-H358, KRAS G12C, 24 h, read-out: IC50 at 24 h): 12.2 ± 0.4 µM | IC50 ([7]; NCI-H838, 48 h, read-out: IC50 at 48 h): 10.5 ± 0.44 µM | IC50 ([7]; NCI-H838, RAS-wild type, 24 h, read-out: IC50 at 24 h): 39.79 ± 0.27 µM | IC50 ([8]; 48 h, read-out: IC50 at 48 h): 8.73 ± 0.43 µM | IC50 ([8]; KRAS G12D, 24 h, read-out: IC50 at 24 h): 22.4 ± 0.5 µM | IC50 ([9]; SW1116, 48 h, read-out: IC50 at 48 h): 7 ± 0.35 µM | IC50 ([9]; SW1116, KRAS G12A, 24 h, read-out: IC50 at 24 h): 19.5 ± 0.29 µM
SMILES: CCCCCCCCCCCC1=C(O)C(=O)C=C(O)C1=O [Embelin]
induction of cell senescence [10]: induced senescence | colony formation [11]: cytotoxic effects on both RAS

SMILES: CC1(N)CCN(c2cnc(-c3cccc(Cl)c3Cl)c(N)n2)CC1 [SHP099]
effect on cell proliferation in monolayer cell culture mode [12]: almost no effect
